Three molecules from patent EP3046573B1, “AMYLIN ANALOGUES” (Zealand Pharma A/S, priority 2013, dated 2015) can be followed below.

pEC50: −log10 of the molar value. Where two headings read alike, the source gives them in different places. Numbered stars: 1 amine (or outer) side, 2 acyl side, 3 side chain; on linkers, the order of the positions; unused ones are H or OH. Bridge positions count the residues as written; N and C are the ends. Square brackets hold non-standard residues; d marks the D form. Peptide text beside a SMILES is read from it. * marks the point of attachment. C20 diacid = O=C(O)CCCCCCCCCCCCCCCCCCC(=O)*; γGlu = O=C(O)[C@H](CCC(=O)[*:2])N[*:1]; NMeI = CC[C@H](C)[C@H](NC)C(=O)O; Sar = CNCC(=O)O

For series [1], the target named is T1, human amylin receptor 3 (hAMYR3) consisting of hCTR2 co-expressed with human Receptor Activity Modifying Protein 3 (hRAMP3) (Homo sapiens, UniProt O60896+P30988).
T1 construct: expressed in transfected cells
T1 sequence (P30988 25-474): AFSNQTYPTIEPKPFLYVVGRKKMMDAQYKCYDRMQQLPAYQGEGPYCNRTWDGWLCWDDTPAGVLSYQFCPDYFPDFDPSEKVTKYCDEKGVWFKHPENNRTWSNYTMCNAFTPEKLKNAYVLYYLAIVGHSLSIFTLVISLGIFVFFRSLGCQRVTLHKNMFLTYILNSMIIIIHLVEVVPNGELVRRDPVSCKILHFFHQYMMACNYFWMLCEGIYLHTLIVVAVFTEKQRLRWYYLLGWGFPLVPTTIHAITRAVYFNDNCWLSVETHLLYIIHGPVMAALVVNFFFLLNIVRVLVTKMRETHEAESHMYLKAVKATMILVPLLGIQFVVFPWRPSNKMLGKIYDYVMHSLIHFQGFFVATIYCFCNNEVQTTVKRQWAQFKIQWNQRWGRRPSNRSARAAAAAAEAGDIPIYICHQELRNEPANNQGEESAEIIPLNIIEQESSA
T1 sequence (O60896 24-148 partner): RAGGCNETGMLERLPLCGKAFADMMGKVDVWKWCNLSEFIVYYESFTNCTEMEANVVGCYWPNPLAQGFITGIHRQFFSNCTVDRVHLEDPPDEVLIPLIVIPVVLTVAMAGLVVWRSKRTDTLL
Description: hAMYR3 assay: induction of cAMP (AlphaScreen cAMP Assay kit) in COS7 cells expressing hAMYR3. Format: cell-based. The method in brief:
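cAMP accumulation read by AlphaScreen in lysates of RAMP-naive COS7 cells stably transfected with hCTR2 plus hRAMP3. Cells exposed to peptide dilutions for 15 min, 37° C, with 100 µM IBMX; 4PL fitting gave EC50 and efficacy relative to pramlintide.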

The nature of series [2]: Solubility assessment (turbidity absorbance at 325 nm). Format: physicochemical. The conditions noted are these: stock 2 mg/ml diluted 1:1, ambient temperature (typically 25°C), n=1; for Solubility, Acetate buffer pH 4: 100 mM acetate buffer pH 4.0; for Solubility, Acetate buffer pH 5: 100 mM acetate buffer pH 5.0; for Solubility, Histidine buffer pH 6: 100 mM histidine buffer pH 6.0; for Solubility, Histidine buffer pH 7: 100 mM histidine buffer pH 7.0; for Solubility, Phosphate buffer pH 6: 100 mM phosphate buffer pH 6.0; for Solubility, Phosphate buffer pH 7: 100 mM phosphate buffer pH 7.0; for Solubility, Phosphate buffer pH 7.5: 100 mM phosphate buffer pH7.5. The gist of the method: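 Read-out: turbidity as absorbance at 325 nm (280 nm also read), single samples, ambient temperature of typically 25°C. Samples were a 1:1 mix of 2 mg/ml stock (water, pH 2.5) with 100 mM acetate, histidine or phosphate buffers spanning pH 4.0–7.5. Cut-off: A325 ≤ 0.02 indicates ≥ 1 mg/ml.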

For series [3], the target named is T2, human calcitonin receptor (hCTR2) (Homo sapiens, UniProt P30988).
T2 construct: expressed in transfected cells
T2 sequence (P30988 25-474): T1 sequence (P30988 25-474)
In words: hCTR2 assay: induction of cAMP (AlphaScreen cAMP Assay kit) in COS7 cells expressing hCTR2. Format: cell-based. The gist of the method: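 Peptide-induced cAMP in hCTR2-expressing COS7 cells, 15 min at 37° C with phosphodiesterase inhibitor IBMX (100 µM), detected by AlphaScreen; potency from 4PL curves.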
In general terms: In Alpha technology, singlet oxygen from a donor bead excites a nearby acceptor bead.

Where [4] appears, read: cAMP induction in COS7 cells expressing hAMYR3, average of a minimum of 3 determinations, read-out: hAMY R3 EC50.

As to `CC[C@H](C)[C@@H](C(=O)N[C@@H](CC(C)C)C(=O)N[C@@H](CO)C(=O)N[C@@H](CO)C(=O)N[C@H](C(=O)N[C@@H](CCC(=O)O)C(=O)N[C@H](C(=O)NCC(=O)N[C@@H](CO)C(=O)N[C@@H](CCC(=O)O)C(=O)N[C@H](C(=O)N1CCC[C@H]1C(N)=O)[C@@H](C)O)C(C)C)[C@@H](C)O)N(C)C(=O)[C@H](C)NC(=O)CN(C)C(=O)[C@H](Cc1ccccc1)NC(=O)[C@H](CO)NC(=O)[C@H](CO)NC(=O)[C@H](CO)NC(=O)[C@H](CO)NC(=O)[C@H](CCCNC(=N)N)NC(=O)[C@H](Cc1c[nH]cn1)NC(=O)[C@H](CC(C)C)NC(=O)[C@H](Cc1ccccc1)NC(=O)[C@H](CCC(=O)O)NC(=O)[C@H](C)NC(=O)[C@H](CC(C)C)NC(=O)[C@H](CCCNC(=N)N)NC(=O)[C@H](CC(=O)O)NC(=O)[C@@H](NC(=O)[C@H](C)NC(=O)[C@@H]1CSSC[C@H](NC(=O)[C@H](CCCNC(=N)N)NC(=O)CC[C@H](NC(=O)CCCCCCCCCCCCCCCCCCC(=O)O)C(=O)O)C(=O)N[C@@H](CCC(=O)O)C(=O)N[C@@H]([C@@H](C)O)C(=O)N[C@@H](C)C(=O)N[C@@H]([C@@H](C)O)C(=O)N1)[C@@H](C)O` [Compound 150, [19CD]-isoGlu-RC()ETATC()ATDRLAEFLHRSSSSF-Gly(Me)-A-Ile(Me)-LSSTEVGSETP-NH2] ({C20 diacid-γGlu}-RCETATCATDRLAEFLHRSSSSF[Sar]A[NMeI]LSSTEVGSETP-NH2; disulfide 2-7), the pEC50 in series [1] (setting [4]) was 9.59. Besides, in series [2], the “Solubility, Acetate buffer pH 4” value is on record as “SS (SS indicates solubility ≥ 1mg/ml)”; the “Solubility, Acetate buffer pH 5” value is “SS (SS indicates solubility ≥ 1mg/ml)”; the “Solubility, Histidine buffer pH 6” value is on record as “SS (SS indicates solubility ≥ 1mg/ml)”; the “Solubility, Histidine buffer pH 7” value was “SS (SS indicates solubility ≥ 1mg/ml)”. In addition, in series [2], the “Solubility, Phosphate buffer pH 6” value is given as “SS (SS indicates solubility ≥ 1mg/ml)”; the “Solubility, Phosphate buffer pH 7” value is listed as “SS (SS indicates solubility ≥ 1mg/ml)”; the “Solubility, Phosphate buffer pH 7.5” value is “SS (SS indicates solubility ≥ 1mg/ml)”. Further, the pEC50 in series [3] is 9.80.

Turning to `CC[C@H](C)[C@@H](C(=O)N[C@@H](CC(C)C)C(=O)N[C@@H](CO)C(=O)N[C@@H](CO)C(=O)N[C@H](C(=O)N[C@@H](CCC(=O)O)C(=O)N[C@H](C(=O)NCC(=O)N[C@@H](CO)C(=O)N[C@@H](CCC(=O)O)C(=O)N[C@H](C(=O)N1CCC[C@H]1C(N)=O)[C@@H](C)O)C(C)C)[C@@H](C)O)N(C)C(=O)[C@H](C)NC(=O)CN(C)C(=O)[C@H](Cc1ccccc1)NC(=O)[C@H](CO)NC(=O)[C@H](CO)NC(=O)[C@H](CO)NC(=O)[C@H](CO)NC(=O)[C@H](CCCNC(=N)N)NC(=O)[C@H](Cc1c[nH]cn1)NC(=O)[C@H](CC(C)C)NC(=O)[C@H](Cc1ccccc1)NC(=O)[C@H](CCC(=O)O)NC(=O)[C@H](C)NC(=O)[C@H](CC(C)C)NC(=O)[C@H](CCCNC(=N)N)NC(=O)[C@H](CC(=O)O)NC(=O)[C@@H](NC(=O)[C@H](C)NC(=O)[C@@H]1CSSC[C@H](NC(=O)[C@H](CCCNC(=N)N)NC(=O)CC[C@H](NC(=O)CCCCCCCCCCCCCCCCCCC(=O)O)C(=O)O)C(=O)N2CCC[C@H]2C(=O)N[C@@H]([C@@H](C)O)C(=O)N[C@@H](C)C(=O)N[C@@H]([C@@H](C)O)C(=O)N1)[C@@H](C)O` [Compound 151, [19CD]-isoGlu-RC()PTATC()ATDRLAEFLHRSSSSF-Gly(Me)-A-Ile(Me)-LSSTEVGSETP-NH2] ({C20 diacid-γGlu}-RCPTATCATDRLAEFLHRSSSSF[Sar]A[NMeI]LSSTEVGSETP-NH2; disulfide 2-7), the pEC50 in series [1] (setting [4]) was 9.96. In series [2], the “Solubility, Acetate buffer pH 4” value is recorded as “SS (SS indicates solubility ≥ 1mg/ml)”; the “Solubility, Acetate buffer pH 5” value is “SS (SS indicates solubility ≥ 1mg/ml)”; the “Solubility, Histidine buffer pH 6” value is listed as “SS (SS indicates solubility ≥ 1mg/ml)”; the “Solubility, Histidine buffer pH 7” value is “SS (SS indicates solubility ≥ 1mg/ml)”. In series [2], the “Solubility, Phosphate buffer pH 6” value is recorded as “SS (SS indicates solubility ≥ 1mg/ml)”; the “Solubility, Phosphate buffer pH 7” value is recorded as “SS (SS indicates solubility ≥ 1mg/ml)”; the “Solubility, Phosphate buffer pH 7.5” value is recorded as “SS (SS indicates solubility ≥ 1mg/ml)”. Moreover, the pEC50 in series [3] (cAMP induction in COS7 cells expressing hCTR2, average of a minimum of 3 determinations, read-out: hCTR2 EC50) is 10.18.

In the case of `CC[C@H](C)[C@@H](C(=O)N[C@@H](CC(C)C)C(=O)N[C@@H](CO)C(=O)N[C@@H](CO)C(=O)N[C@H](C(=O)N[C@@H](CC(N)=O)C(=O)N[C@H](C(=O)NCC(=O)N[C@@H](CO)C(=O)N[C@@H](CC(N)=O)C(=O)N[C@H](C(=O)N1CCC[C@H]1C(=O)NC)[C@@H](C)O)C(C)C)[C@@H](C)O)N(C)C(=O)[C@H](C)NC(=O)CN(C)C(=O)[C@H](Cc1ccccc1)NC(=O)[C@H](CC(N)=O)NC(=O)[C@H](CC(N)=O)NC(=O)[C@H](CO)NC(=O)[C@H](CO)NC(=O)[C@H](CCCNC(=N)N)NC(=O)[C@H](Cc1c[nH]cn1)NC(=O)[C@H](CC(C)C)NC(=O)[C@H](Cc1ccccc1)NC(=O)[C@H](CCC(=O)O)NC(=O)[C@H](C)NC(=O)[C@H](CC(C)C)NC(=O)[C@H](CCCNC(=N)N)NC(=O)[C@H](CCC(N)=O)NC(=O)[C@@H](NC(=O)[C@H](C)NC(=O)[C@@H]1CSSC[C@H](NC(=O)[C@H](CCCNC(=N)N)NC(=O)CC[C@H](NC(=O)CCCCCCCCCCCCCCCCCCC(=O)O)C(=O)O)C(=O)N[C@@H](CC(N)=O)C(=O)N[C@@H]([C@@H](C)O)C(=O)N[C@@H](C)C(=O)N[C@@H]([C@@H](C)O)C(=O)N1)[C@@H](C)O` [Compound 152, [19CD]-isoGlu-RC()NTATC()ATQRLAEFLHRSSNNF-Gly(Me)-A-Ile(Me)-LSSTNVGSNTP-NHMe] ({C20 diacid-γGlu}-RCNTATCATQRLAEFLHRSSNNF[Sar]A[NMeI]LSSTNVGSNTP-NHMe; disulfide 2-7), in series [1], the pEC50 was 8.28. In series [2], the “Solubility, Acetate buffer pH 4” value is reported as “SS (SS indicates solubility ≥ 1mg/ml)”; the “Solubility, Acetate buffer pH 5” value is listed as “SS (SS indicates solubility ≥ 1mg/ml)”; the “Solubility, Histidine buffer pH 6” value was “SS (SS indicates solubility ≥ 1mg/ml)”; the “Solubility, Histidine buffer pH 7” value is “SS (SS indicates solubility ≥ 1mg/ml)”. Also, in series [2], the “Solubility, Phosphate buffer pH 6” value was “SS (SS indicates solubility ≥ 1mg/ml)”; the “Solubility, Phosphate buffer pH 7” value was “SS (SS indicates solubility ≥ 1mg/ml)”; the “Solubility, Phosphate buffer pH 7.5” value was “SS (SS indicates solubility ≥ 1mg/ml)”. Also, the pEC50 in series [3] was 9.02.

The term pEC50 denotes −log10 of the EC50, conventionally taken in molar units.
